Three compounds from patent publication US20170281622A1, “DERIVATIVES OF MACROCYCLIC N-ARYL-2-AMINO-4-ARYL-PYRIMIDINE POLYETHERS AS INHIBITORS OF FTL3 AND JAK” (PIERRE FABRE MEDICAMENT, priority 2014, published 2017) can be followed below.

Substitutions are numbered along the chain they refer to.

The subject of one test is MV4-11. The test is described as follows: Antiproliferative activity, MV4-11 cells (ATPLite). In kind it is cell-based. Conditions: Homo sapiens; MV4-11 cell line (acute myeloid leukemia, FLT3-ITD), 72 h, cell viability by ATPLite; read-out: EC50 MV411. The protocol:
(§1) The characteristics of the cell lines used are as follows (Table 2).
(§2) MV4-11 and MOLM-13 cell lines are cultured in the culture medium specified in Table 2 above and according to the supplier's recommendations. The tests are carried out in 96-well plates. The cells are divided in two at D0. At D1, they are seeded and treated with the compounds at various concentrations and incubated for 72 h at 37° C. and 5% CO2. The dilution of the compounds from stock solutions in DMSO (Sigma, #D8418) was made semi-logarithmically for a final concentration in the culture medium of 0.1%. At day 4, cell viability is evaluated by assaying the ATP released by the living cells using the ATPLite® kit (Perkin Elmer, #6016947). The EC50 values (concentration of the compound necessary to obtain 50% of the maximum effect) are calculated using curve-fitting software.

The target of a further test is T1, FLT3 (Homo sapiens, UniProt P36888).
T1 construct: purchased Life Technologies PV3182
T1 sequence (P36888 27-993): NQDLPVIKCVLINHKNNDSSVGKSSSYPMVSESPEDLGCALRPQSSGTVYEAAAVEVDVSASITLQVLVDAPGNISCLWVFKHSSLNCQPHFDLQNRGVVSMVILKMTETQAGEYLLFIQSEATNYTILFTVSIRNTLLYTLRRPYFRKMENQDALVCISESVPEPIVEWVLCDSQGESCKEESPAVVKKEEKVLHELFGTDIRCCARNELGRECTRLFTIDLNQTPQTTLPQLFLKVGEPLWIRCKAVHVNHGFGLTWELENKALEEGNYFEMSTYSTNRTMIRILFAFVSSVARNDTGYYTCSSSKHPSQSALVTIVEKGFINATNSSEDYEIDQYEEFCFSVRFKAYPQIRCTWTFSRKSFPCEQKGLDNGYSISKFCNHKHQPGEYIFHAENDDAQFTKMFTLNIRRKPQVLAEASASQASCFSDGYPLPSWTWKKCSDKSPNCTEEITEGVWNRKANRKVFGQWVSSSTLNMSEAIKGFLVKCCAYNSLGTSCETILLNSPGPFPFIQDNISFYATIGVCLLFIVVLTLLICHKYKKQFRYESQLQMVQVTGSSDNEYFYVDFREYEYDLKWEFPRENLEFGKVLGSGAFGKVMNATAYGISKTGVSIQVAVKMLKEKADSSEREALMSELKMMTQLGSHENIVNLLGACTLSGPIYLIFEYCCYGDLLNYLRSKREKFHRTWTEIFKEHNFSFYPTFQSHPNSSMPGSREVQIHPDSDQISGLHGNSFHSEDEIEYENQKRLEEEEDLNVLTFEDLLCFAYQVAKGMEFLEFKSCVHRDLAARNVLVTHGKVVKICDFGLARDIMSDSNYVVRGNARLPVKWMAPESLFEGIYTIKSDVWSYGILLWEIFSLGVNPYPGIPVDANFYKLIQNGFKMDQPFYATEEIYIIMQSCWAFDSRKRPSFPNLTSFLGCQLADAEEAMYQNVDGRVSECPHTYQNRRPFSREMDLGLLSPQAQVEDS
The test is described as follows: LanthaScreen TR-FRET binding test, FLT3. Conditions: recombinant enzyme 15 nM, kinase tracer 236 3 nM, 25° C., 1 hour. How it is done: (§3) FLT3 (#PV3182), JAK2 (#FV4210) and JAK3 (#PV3855) recombinant enzymes were purchased from Life Technologies, FLT3-ITD (#0778-0000-1) and FLT3^D835Y (#14-610) proteins were purchased from ProQinase and Merck Millipore, respectively. All the tests were carried out in 384-well plates. The principle of these binding tests is based on the LanthaScreen® TR-FRET methodology from Life Technologies.
(§4) FLT3 tests. The reaction mixture (15 μL total volume) contains the following compounds: 15 nM FLT3, FLT3-ITD or FLT3^D835Y, 3 nM kinase tracer 236 (Life Technologies, #PV5592) and 6 nM LanthaScreen® anti-GST antibody coupled to a europium chelate (Life Technologies, #PV5594) for FLT3-ITD and FLT3^D835Y or 6 nM LanthaScreen® anti-His antibody coupled to a europium chelate (Life Technologies, #PV5596) for FLT3.
(§5) The compounds are evaluated at 8 different concentrations prepared by making dilutions from a starting 10 mM stock solution in dimethylsulfoxide (DMSO) (Sigma, #D8418). The final DMSO concentration in the test is 1%. The reaction is carried out at 25° C. for 1 hour and detected on the EnVision® reader (Perkin Elmer) according to the recommendations of the supplier, Life Technologies.
(§6) The results are presented (Table 1) as the concentration values of the compound at which 50% of the kinase activity is inhibited, IC50 (μM), generated using the PRISM software (GraphPad).

Another test addresses T2, FLT3^D835Y (Homo sapiens, UniProt P36888, D835Y).
T2 construct: purchased Merck Millipore 14-610
T2 sequence (P36888 27-993 D835Y): T1 sequence (P36888 27-993) with D809Y
The test is described as follows: LanthaScreen TR-FRET binding test, FLT3 D835Y. As to conditions: 15 nM protein, kinase tracer 236 3 nM, 25° C., 1 hour. The protocol:
as §3, §4, §5, §6

A further test deals with T3, JAK3 (Homo sapiens, UniProt P52333).
T3 construct: purchased Life Technologies PV3855
T3 sequence (P52333 1-1124): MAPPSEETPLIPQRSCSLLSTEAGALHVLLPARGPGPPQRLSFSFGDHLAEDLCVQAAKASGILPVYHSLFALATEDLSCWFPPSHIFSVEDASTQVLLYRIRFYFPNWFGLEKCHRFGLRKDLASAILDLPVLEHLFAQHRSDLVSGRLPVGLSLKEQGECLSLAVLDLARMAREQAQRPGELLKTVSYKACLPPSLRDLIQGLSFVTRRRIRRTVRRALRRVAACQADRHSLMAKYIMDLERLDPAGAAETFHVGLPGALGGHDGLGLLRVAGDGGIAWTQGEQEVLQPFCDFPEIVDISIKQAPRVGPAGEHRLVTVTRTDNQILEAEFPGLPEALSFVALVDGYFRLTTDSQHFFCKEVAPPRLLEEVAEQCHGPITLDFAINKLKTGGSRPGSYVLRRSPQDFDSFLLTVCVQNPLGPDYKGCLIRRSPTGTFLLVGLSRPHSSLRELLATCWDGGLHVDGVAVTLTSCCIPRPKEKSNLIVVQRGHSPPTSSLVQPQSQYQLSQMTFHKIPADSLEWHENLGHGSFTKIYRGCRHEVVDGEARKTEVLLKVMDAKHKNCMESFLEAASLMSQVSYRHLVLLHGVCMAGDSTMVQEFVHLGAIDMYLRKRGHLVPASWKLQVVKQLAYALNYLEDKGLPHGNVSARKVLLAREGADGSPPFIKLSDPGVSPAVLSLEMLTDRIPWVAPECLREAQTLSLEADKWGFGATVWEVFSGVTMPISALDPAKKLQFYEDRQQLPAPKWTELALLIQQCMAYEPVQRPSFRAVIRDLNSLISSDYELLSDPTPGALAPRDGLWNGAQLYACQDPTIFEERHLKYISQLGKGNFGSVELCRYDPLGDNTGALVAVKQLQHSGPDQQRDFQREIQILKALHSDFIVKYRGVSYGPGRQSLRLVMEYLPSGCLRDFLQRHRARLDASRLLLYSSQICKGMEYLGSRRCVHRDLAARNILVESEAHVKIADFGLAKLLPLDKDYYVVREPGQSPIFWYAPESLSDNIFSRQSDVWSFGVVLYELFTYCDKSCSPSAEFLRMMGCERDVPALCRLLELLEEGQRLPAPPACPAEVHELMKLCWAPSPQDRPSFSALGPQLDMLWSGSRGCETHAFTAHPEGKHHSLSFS
The test is described as follows: LanthaScreen TR-FRET binding test, JAK3. As to conditions: recombinant enzyme 15 nM, kinase tracer 236 3 nM, 25° C., 1 hour. How it is done:
as §3
(§7) JAK tests. The reaction mixture (15 μL total volume) contains the following compounds: 15 nM JAK2 or JAK3, 150 nM kinase tracer 236 (Life Technologies, #PV5592) for JAK2 or 3 nM for JAK3 and 6 nM LanthaScreen® anti-GST antibody coupled to a europium chelate (Life Technologies, #PV5594) for both enzymes.
as §5, §6

The target of the next test is T4, JAK2 (Homo sapiens, UniProt O60674).
T4 construct: purchased Life Technologies FV4210
T4 sequence (O60674 whole entry): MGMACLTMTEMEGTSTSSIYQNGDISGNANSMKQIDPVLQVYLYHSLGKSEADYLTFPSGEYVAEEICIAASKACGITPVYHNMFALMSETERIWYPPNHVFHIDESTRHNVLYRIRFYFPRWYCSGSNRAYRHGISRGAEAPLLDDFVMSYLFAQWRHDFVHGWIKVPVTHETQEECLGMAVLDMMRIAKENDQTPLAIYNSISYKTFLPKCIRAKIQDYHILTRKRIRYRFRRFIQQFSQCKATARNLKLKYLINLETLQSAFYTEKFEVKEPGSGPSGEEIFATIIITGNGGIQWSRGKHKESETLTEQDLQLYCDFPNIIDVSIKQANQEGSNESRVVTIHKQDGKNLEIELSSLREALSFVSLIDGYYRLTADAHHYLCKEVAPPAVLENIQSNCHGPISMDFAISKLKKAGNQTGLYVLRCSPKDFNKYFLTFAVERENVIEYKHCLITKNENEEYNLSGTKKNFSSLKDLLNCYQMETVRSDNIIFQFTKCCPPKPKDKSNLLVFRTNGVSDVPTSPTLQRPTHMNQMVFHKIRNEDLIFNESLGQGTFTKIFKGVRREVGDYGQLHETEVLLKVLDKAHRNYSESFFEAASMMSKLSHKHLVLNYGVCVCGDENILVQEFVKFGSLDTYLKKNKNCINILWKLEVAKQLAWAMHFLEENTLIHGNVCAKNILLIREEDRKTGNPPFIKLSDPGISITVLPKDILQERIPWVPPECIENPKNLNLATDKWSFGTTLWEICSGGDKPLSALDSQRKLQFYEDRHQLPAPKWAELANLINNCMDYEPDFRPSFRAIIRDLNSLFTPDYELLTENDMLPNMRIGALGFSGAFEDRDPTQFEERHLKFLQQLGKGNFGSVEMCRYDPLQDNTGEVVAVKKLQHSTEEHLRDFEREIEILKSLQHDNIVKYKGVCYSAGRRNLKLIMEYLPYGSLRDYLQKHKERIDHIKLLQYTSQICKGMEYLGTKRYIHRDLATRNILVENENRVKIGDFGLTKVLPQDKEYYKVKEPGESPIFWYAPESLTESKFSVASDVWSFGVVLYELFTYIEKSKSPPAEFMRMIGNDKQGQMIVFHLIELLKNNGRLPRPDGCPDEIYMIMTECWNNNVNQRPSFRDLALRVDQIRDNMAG
The test is described as follows: LanthaScreen TR-FRET binding test, JAK2. Conditions: recombinant enzyme 15 nM, kinase tracer 236 150 nM, 25° C., 1 hour. How it is done: as §3, §7, §5, §6

The subject of another test is MOLM-13. The test is described as follows: Antiproliferative activity, MOLM-13 cells (ATPLite). Format: cell-based. Conditions: Homo sapiens; MOLM-13 cell line (acute myeloid leukemia, FLT3-ITD), 72 h, cell viability by ATPLite; read-out: EC50 MOLM13. How it is done: as §1, §2
A further test deals with T5, FLT3-ITD (Homo sapiens, UniProt P36888).
T5 construct: fused on or other part: GST tag, inferred from detection with the anti-GST europium antibody
T5 sequence (P36888 1-993): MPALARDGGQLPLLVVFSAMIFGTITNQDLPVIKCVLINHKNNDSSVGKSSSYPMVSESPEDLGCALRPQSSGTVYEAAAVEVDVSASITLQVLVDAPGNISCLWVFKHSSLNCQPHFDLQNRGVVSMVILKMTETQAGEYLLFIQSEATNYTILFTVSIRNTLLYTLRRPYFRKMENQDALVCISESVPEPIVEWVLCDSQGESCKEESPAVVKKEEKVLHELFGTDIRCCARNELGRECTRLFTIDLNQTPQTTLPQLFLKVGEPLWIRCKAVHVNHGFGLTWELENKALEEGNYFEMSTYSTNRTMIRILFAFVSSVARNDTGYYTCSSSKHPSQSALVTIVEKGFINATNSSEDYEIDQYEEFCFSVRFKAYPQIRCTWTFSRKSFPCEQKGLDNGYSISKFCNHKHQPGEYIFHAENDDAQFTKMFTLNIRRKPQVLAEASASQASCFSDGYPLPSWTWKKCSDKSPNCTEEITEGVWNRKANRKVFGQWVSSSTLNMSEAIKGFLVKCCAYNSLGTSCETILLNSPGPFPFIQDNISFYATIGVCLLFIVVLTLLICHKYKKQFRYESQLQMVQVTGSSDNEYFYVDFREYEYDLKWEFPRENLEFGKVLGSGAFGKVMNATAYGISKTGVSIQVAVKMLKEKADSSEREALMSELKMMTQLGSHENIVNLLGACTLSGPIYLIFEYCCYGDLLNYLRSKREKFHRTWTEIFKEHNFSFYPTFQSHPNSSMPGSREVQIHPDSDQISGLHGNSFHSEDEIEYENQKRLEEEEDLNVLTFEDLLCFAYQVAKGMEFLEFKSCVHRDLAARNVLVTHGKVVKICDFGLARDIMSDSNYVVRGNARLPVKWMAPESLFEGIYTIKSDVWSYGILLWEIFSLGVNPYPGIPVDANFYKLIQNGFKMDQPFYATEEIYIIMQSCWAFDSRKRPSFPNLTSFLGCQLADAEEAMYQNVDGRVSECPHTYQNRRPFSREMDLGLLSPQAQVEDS
The test is described as follows: LanthaScreen TR-FRET binding test, FLT3-ITD. Conditions: 15 nM protein, kinase tracer 236 3 nM, 25° C., 1 hour. The protocol:
as §3, §4, §5, §6

Take `CN1CCN(c2ccc3cc2OCCOCCOc2cccc(c2)-c2ccnc(n2)N3)CC1` [Compound 4]: the figures for the EC50 with MV4-11 and in the test on MOLM-13 were 57.3 nM and 18.9 nM, respectively. In addition, the IC50 on FLT3 worked out at 25.5 nM; on FLT3^D835Y, 35 nM; at JAK3 it was 50 nM; at JAK2 it was 7.7 nM; on FLT3-ITD it was 14.5 nM.

For `CN1CCC(N2CCN(c3ccc4cc3OCCOCCOc3cccc(c3)-c3ccnc(n3)N4)CC2)CC1` [Compound 6], the EC50 in the test with MV4-11 came out at 246 nM; in the test on MOLM-13, 145 nM. Moreover, the IC50 on FLT3 came out at 110 nM; on FLT3^D835Y, 41.2 nM; on JAK3, 50 nM; at JAK2, 5.2 nM; at FLT3-ITD, 120 nM.

In the case of `CN1CCN(c2cc3cc(c2)OCCOCCOc2cccc(c2)-c2ccnc(n2)N3)CC1` [Compound 46], the EC50 was 1.8 nM in the test on MV4-11 and 3.9 nM in the test on MOLM-13. The IC50 on FLT3 stood at 4.7 nM; on FLT3^D835Y, 6.2 nM; on JAK3, 100 nM; on JAK2, 60 nM; at FLT3-ITD, 1.6 nM.
